Holding throughout (type): cell-based
The target of one assay is T1, EGFR L858R&T790M (Homo sapiens, UniProt P00533, L858R/T790M).
T1 construct: host or cells: NCI-H1975
The assay can be described thus: EGFR L858R and T790M cellular phosphorylation inhibition in NCI-H1975 (MSD).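 Note: phosphorylated and total EGFR detected by electrochemiluminescence, cells exposed to compound in medium containing 1% FBS at 37 °C.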 The conditions noted are these: NCI-H1975 cells, 4 h compound, p-EGFR(Y1068)/total EGFR; read-out: EGFR L858R and T790M mutation IC50.

Assay [1] concerns the target T2, human EGFR exon 20 H773_V774insNPH (Homo sapiens, UniProt P00533, INS773NPH).
T2 construct: host or cells: Ba/F3
Description: EGFR Exon20 NPH insertion cellular phosphorylation inhibition (MSD pEGFR Y1068/total EGFR).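 Note: IL3-independent Ba/F3 cells with constitutively phosphorylated EGFR, compound exposure at 37 °C under 5% CO2, electrochemiluminescent MSD measurement of the p-EGFR to total EGFR ratio.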 The conditions noted are these: Ba/F3 EGFR NPH ins cells, 4 h compound, p-EGFR(Y1068)/total EGFR.

The target of assay [2] is T3, human EGFR exon 20 V769_D770insASV (Homo sapiens, UniProt P00533, INS769ASV).
T3 construct: expressed in transfected cells; host or cells: Ba/F3 (DSMZ ACC-300), lentiviral transduction, puromycin selection, IL3 depletion
T3 sequence (P00533 with tags, fused parts or gaps INS769ASV): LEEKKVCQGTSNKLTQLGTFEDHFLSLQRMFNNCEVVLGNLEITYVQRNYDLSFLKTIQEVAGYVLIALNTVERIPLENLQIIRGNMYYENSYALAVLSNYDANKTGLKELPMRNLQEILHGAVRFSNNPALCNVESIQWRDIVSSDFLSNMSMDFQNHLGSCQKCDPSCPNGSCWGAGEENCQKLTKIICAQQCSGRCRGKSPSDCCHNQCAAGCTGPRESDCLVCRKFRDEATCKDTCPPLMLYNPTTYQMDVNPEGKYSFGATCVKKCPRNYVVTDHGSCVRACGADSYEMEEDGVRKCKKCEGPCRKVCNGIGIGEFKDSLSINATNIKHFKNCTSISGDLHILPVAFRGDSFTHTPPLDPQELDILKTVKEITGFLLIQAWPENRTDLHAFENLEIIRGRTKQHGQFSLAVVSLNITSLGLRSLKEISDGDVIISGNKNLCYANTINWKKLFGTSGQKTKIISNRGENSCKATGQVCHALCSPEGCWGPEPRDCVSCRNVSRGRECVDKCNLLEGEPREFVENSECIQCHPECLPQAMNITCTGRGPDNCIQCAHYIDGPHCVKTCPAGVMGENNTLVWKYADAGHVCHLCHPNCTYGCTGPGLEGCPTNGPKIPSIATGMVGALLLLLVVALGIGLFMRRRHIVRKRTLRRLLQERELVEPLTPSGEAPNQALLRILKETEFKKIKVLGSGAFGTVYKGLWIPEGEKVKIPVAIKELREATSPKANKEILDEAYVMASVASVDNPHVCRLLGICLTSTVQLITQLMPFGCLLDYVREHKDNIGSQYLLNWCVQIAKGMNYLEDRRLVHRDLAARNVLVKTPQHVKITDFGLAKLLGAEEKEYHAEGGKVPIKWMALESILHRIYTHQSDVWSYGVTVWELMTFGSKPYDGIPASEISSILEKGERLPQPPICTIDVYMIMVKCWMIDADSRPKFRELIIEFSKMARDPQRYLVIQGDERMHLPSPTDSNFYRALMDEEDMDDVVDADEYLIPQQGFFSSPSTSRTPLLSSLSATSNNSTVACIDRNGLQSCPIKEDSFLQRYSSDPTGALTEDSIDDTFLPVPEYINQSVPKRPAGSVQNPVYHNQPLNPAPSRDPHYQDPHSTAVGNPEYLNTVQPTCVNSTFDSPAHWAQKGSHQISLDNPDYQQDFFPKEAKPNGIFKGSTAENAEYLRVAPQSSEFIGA
The assay can be described thus: EGFR Exon20 ASV insertion cellular phosphorylation inhibition (MSD pEGFR Y1068/total EGFR).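 Note: electrochemiluminescent readout on an MSD SECTOR Imager, IL3-independent transduced cells in medium with 1% FBS, compound concentration series at 37 °C and 5% CO2.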 The conditions noted are these: Ba/F3 EGFR ASV ins cells, 4 h compound, p-EGFR(Y1068)/total EGFR.
Description: To generate the EGFR exon 20 V769_D770insASV transduced Ba/F3 cell line, the parental Ba/F3 cells were infected with the recombinant EGFR V769_D770insASV lentivirus and then followed by 1 µg/ml of puromycin selection and IL3 depletion. The resulting cell line expresses constitutively phosphorylated EGFR protein and proliferates in the absence of IL3, which could be used for in vitro PD and anti-proliferation assays.
One day before the test, WT or mutant cells were seeded in 96 well plates at appropriate concentrations with corresponding growth media supplemented with 1% FBS, and incubated overnight. The next day, tested compounds at a series of concentrations were added into each individual well of the plates, and the plates were incubated for 4 h at 37° C. with 5% CO2.
The EGFR (Y1068) phosphorylation level (activity) of cells in each well were then measured with MSD kit named “MULTI-SPOT®96 4-Spot HB Prototype EGFR Triplex [sequence]: pEGFR(Tyr1068),pEGFR(Tyr1173), Total EGFR” according to the manufacturer’s instruction (MESO SCALE DISCOVERY, Cat# N45ZB-1). The assay is an electrochemiluminescent method for determining both phosphorylated and total EGFR of cells with an MSD SECTOR® Imager and the ratio of p-EGFR/total EGFR can be generated by the machine. The Her2 (Y1248) phosphorylation level (activity) of cells in each well were measured with MSD Kit named “Phospho-ErbB2 (Tyr1248) Assay Whole Cell Lysate Kit” according to the manufacturer’s instruction (MESO SCALE DISCOVERY, Cat# K151CLD-3). The assay is an electrochemiluminescent method (MESO SCALE DISCOVERY) for determining both phosphorylated and total Her2 of cells with an MSD SECTOR® Imager and then the ratio of p-Her2/total Her2 can be generated by the machine.

In assay [3] the test system is NCI-H1975 EGFR L858R/T790M cells. The assay can be described thus: Cell proliferation, NCI-H1975 EGFR L858R/T790M (CellTiter-Glo, 72 h).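 Note: viable cells quantified by luciferase-based ATP luminescence, proliferation expressed relative to DMSO-treated wells (100%) after subtracting a parallel plate read at the time of dosing.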 The note with it: Homo sapiens, NCI-H1975, 72 h.
The test system of another assay is Ba/F3 EGFR ASV ins cells. Description: Cell proliferation, Ba/F3 EGFR ASV ins (CellTiter-Glo, 72 h).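 Note: IL3-independent Ba/F3 cells transduced with EGFR V769_D770insASV, cellular ATP luminescence after compound exposure, growth relative to DMSO control with the day-0 baseline reading subtracted.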 The conditions noted are these: Ba/F3 EGFR, 72 h. Background: In ATP-based viability assays light output follows the ATP content of the culture.
The subject of a further assay is OCI-LY-10 cells. Description: BTK (wt) cell proliferation, OCI-LY-10 (CellTiter-Glo, 72 h).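 Note: viable cells quantified via cellular ATP luminescence, proliferation given as percent of DMSO control after subtracting a duplicate plate read at time of dosing.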 The note with it: Homo sapiens, OCI-Ly10, 72 h, OCI-LY-10 cells, 72 h, CellTiter-Glo; read-out: BTK WT OCI-LY-10 GI50.
For a further assay, the system named is TMD-8 cells. Description: BTK (wt) cell proliferation, TMD-8 (CellTiter-Glo, 72 h).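 Note: viable cells quantified by ATP-based luminescence, proliferation expressed as percent of DMSO control after subtracting a time-zero baseline plate read at dosing.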 The note with it: Homo sapiens, TMD8, 72 h, TMD-8 cells, 72 h, CellTiter-Glo; read-out: BTK WT TMD-8 GI50.
Assay [4] has as its target T4, human Her2 exon 20 insertion mutation YVMA (Homo sapiens, UniProt P04626, INS775YVMA).
T4 construct: expressed in transfected cells; host or cells: NIH-3T3, lentiviral transduction, puromycin selection
Description: Her2 Exon 20 YVMA insertion cellular phosphorylation inhibition (MSD p-Her2 Y1248/total Her2).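 Note: lentivirally transduced NIH-3T3 cells in 1% FBS medium, electrochemiluminescent MSD read-out, graded compound concentrations at 37 °C.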 The note with it: Her2 YVMAins cells, 4 h compound.

The next assay concerns the target T5, WT EGFR (Homo sapiens, UniProt P00533).
T5 construct: host or cells: A-431
The assay can be described thus: WT EGFR cellular phosphorylation inhibition in A-431 (hEGF stimulated, MSD).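 Note: electrochemiluminescence read-out of EGFR Tyr1068 phosphorylation expressed as ratio to total EGFR, cells kept in medium with 1% FBS, compounds tested as a concentration series.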 The conditions noted are these: A431 cells, 4 h compound, then 100 ng/ml hEGF 10 min.

For assay [5], the system named is Her2 exon 20 insertion YVMA transduced NIH-3T3 cell line. Description: Cell proliferation, Her2 YVMAins NIH-3T3 (CellTiter-Glo, 72 h).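 Note: viable cells quantified by ATP luminescence, growth over a day-zero baseline plate expressed as percent of DMSO control growth, compound dilution series in 10% FBS medium.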 The conditions noted are these: Mus musculus, NIH3T3, 72 h, Her2 YVMAins cells, 72 h proliferation; read-out: Her2 Exon 20 YVMA insertion GI50.
In a further assay the test system is DB cells. Description: BTK (wt) cell proliferation, DB (CellTiter-Glo, 72 h).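 Note: DB cells in 384-well plates given a dilution series of compound, viable cells read by ATP luminescence, growth expressed versus DMSO control after subtracting a time-zero plate reading.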 The note with it: Homo sapiens, DB, DB cells, CellTiter-Glo, read-out: Non-BCR activated DB GI50.
The test system of another assay is Ri-1 cells. The assay can be described thus: BTK (wt) cell proliferation, Ri-1 (CellTiter-Glo, 72 h).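 Note: viable cells quantified as cellular ATP luminescence, proliferation normalized to a time-zero plate and the DMSO control, compounds tested across a dilution series.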 The note with it: Ri-1, 72 h, Ri-1 cells, 72 h, CellTiter-Glo; read-out: BTK WT Ri-1 GI50.
The next assay has as its system Ba/F3 EGFR NPH ins cells. Description: Cell proliferation, Ba/F3 EGFR NPH ins (CellTiter-Glo, 72 h).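 Note: IL3-independent cells carrying constitutively phosphorylated EGFR, compound dilution series, viable cells quantified by ATP luminescence, growth relative to DMSO wells after subtracting pre-dosing (day 0) baseline.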 The note with it: Ba/F3 EGFR, 72 h.
The next assay deals with WT EGFR cell line A-431. Description: Cell proliferation, WT EGFR A431 (CellTiter-Glo, 72 h).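 Note: proliferation from a luminescent ATP viability signal, expressed as 100 × (treated minus time-zero plate) over (DMSO control minus time-zero plate), cells grown with 10% FBS.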 The conditions noted are these: Homo sapiens, A-431, 72 h.
Setting [6] is: NCI-H1975, 72 h proliferation, read-out: EGFR L858R and T790M mutation GI50.
The mark [7] stands for this setting: Ba/F3 EGFR ASV ins, 72 h proliferation, read-out: EGFR Exon20 ASV insertion GI50.
[8] abbreviates: Ba/F3 EGFR NPH ins, 72 h proliferation, read-out: EGFR Exon20 NPH insertion GI50.
Setting [9] is: A431, 72 h proliferation, read-out: EGFR WT A431 GI50.

Molecules are shown by their SMILES. Counter-ions that a name gives are not always drawn. Like-named read-outs stand apart in the source and are kept apart here.

T1 sequence (P00533 25-1210 T790M/L858R): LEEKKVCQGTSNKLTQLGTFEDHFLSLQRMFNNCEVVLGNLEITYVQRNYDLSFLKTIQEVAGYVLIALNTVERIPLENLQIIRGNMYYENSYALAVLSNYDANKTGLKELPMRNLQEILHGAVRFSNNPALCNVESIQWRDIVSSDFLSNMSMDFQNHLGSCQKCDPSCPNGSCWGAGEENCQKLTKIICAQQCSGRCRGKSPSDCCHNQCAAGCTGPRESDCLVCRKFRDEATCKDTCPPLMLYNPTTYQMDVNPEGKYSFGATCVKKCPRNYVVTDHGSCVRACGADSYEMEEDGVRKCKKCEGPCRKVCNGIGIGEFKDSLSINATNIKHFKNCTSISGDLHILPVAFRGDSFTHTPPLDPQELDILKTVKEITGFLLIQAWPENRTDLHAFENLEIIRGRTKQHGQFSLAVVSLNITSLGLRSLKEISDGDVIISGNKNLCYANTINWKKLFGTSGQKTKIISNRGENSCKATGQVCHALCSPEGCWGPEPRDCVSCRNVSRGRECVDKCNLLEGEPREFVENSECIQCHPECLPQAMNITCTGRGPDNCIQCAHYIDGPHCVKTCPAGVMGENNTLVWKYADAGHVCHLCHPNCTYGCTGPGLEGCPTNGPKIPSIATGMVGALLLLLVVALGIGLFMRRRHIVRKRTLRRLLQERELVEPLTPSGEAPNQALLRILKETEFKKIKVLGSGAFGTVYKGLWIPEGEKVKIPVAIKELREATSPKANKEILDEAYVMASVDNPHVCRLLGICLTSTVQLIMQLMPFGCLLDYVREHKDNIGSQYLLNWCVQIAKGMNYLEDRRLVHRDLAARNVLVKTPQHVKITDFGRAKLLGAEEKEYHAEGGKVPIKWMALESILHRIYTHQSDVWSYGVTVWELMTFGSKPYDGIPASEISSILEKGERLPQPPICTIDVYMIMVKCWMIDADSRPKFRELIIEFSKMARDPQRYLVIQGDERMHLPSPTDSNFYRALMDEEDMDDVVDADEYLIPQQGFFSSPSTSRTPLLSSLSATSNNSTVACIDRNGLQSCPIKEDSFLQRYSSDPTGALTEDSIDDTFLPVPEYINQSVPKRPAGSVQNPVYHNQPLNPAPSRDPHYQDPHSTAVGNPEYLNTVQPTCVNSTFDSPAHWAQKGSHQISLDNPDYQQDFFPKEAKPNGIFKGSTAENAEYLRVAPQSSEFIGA
T4 sequence (P04626 with tags, fused parts or gaps INS775YVMA): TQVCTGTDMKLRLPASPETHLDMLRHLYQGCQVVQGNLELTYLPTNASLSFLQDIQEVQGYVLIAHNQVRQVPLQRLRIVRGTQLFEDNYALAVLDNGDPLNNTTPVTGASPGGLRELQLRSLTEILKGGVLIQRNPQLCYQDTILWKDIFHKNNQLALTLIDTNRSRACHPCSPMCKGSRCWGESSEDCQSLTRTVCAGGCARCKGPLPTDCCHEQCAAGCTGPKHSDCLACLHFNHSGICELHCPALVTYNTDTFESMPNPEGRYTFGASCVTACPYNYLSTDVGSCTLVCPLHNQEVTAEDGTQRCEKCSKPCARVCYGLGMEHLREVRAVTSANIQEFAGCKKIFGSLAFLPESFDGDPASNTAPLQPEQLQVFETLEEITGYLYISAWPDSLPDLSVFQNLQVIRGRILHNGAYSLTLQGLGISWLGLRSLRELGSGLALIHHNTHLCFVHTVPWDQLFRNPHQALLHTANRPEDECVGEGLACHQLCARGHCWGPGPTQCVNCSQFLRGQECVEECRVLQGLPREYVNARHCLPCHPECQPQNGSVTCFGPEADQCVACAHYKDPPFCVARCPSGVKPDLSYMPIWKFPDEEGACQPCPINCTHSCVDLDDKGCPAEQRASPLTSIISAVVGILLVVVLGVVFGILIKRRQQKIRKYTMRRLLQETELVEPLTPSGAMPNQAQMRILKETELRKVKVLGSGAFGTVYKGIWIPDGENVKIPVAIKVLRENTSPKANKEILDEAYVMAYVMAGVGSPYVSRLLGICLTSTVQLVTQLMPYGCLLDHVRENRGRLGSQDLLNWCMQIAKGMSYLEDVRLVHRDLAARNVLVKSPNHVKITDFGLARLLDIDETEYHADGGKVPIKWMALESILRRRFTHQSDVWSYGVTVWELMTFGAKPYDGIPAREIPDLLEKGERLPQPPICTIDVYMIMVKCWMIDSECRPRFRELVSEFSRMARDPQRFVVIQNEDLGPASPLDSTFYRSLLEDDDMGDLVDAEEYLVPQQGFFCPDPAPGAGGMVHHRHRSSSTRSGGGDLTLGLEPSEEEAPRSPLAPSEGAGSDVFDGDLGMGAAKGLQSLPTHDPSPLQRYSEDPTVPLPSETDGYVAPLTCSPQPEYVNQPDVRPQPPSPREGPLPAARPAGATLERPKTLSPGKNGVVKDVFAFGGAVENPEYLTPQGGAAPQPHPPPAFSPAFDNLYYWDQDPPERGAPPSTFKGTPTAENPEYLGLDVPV
T2 sequence (P00533 with tags, fused parts or gaps INS773NPH): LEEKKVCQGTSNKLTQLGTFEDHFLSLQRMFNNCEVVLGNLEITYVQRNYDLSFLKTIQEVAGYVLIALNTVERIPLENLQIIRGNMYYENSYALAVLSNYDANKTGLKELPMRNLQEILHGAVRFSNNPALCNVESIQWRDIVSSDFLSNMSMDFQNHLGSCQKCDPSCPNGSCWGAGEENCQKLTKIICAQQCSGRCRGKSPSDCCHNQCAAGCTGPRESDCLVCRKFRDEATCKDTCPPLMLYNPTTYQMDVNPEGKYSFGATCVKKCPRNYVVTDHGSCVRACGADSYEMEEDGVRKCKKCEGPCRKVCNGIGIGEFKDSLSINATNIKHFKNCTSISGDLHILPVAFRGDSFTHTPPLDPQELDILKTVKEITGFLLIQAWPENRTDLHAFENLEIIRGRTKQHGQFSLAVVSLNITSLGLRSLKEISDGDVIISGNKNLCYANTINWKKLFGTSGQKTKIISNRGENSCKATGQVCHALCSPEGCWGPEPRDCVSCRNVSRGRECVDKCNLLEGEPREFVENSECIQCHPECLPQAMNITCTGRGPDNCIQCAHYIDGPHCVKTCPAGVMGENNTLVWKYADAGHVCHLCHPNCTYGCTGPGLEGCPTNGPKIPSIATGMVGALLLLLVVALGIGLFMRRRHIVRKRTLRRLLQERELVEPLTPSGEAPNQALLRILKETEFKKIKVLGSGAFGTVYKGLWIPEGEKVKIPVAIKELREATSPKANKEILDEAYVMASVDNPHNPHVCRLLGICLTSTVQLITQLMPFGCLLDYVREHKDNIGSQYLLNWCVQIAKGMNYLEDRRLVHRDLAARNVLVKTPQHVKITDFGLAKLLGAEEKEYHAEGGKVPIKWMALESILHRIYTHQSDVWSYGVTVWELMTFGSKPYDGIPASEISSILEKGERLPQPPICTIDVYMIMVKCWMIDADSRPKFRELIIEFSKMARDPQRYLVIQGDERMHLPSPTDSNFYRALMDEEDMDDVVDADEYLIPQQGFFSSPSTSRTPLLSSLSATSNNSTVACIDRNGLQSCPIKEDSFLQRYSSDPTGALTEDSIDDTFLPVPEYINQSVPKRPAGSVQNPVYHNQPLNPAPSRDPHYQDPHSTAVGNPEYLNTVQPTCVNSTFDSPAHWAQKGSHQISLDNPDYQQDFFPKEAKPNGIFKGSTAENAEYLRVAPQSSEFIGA
Description for Ba/F3 EGFR NPH ins cells: Similar to recombinant human EGFR exon 20 H769_V770insASV Ba/F3 cell line, the recombinant human EGFR exon 20 H773_V774insNPH Ba/F3 cell line also expresses constitutively phosphorylated EGFR protein and proliferates in the absence of IL3, which could be used for in vitro PD and anti-proliferation assays.
WT or mutant cells were seeded in 384 well plates at appropriate concentrations with corresponding growth media supplemented with 10% FBS, for each experiment, identical plates were prepared in duplicates, and the plates were incubated overnight. On the next day, one of each duplicated plates was dosed with tested compounds at a series of concentrations, and another one of the duplicated plate was analysied for G0 value. The dosed plates were incubate for another 72 h at 37° C. with 5% CO2 and the number of viable cells in each well of the G0 plates or the dosed plates were measured by CellTiter-Glo® Luminescent Cell Viability Assay (Promega). This assay is a luminescent method for determining the number viable cells through measurement of cellular ATP concentration by detection of luciferase activity. Detection reagents (15 µl) was dispensed into per well, and the plates were incubate for 30 min at room temperature. Then, the luminescence in each well was measured using the Envision plate reader (PerkinElmer). The percentage of proliferation was calculated based on the formula: %Proliferation= 100 × (G3 value of sample well-Go value)/(G3 value of DMSO control-Go value).
Description for DB cells: (§1) OCI-LY-10 at 3,750 cells/well, TMD-8 and Ri-1 at 2,000 cells/well, and DB at 1,250 cells/well, respectively, were sorted into 384-well plates in RPMI1640 medium with 10% FBS. After overnight incubation, all cells were incubated with compound at a series of concentrations. Meanwhile, a duplicated plate of each cell line was prepared for measuring G0 value. The dosed plates were further incubated for 72 hours and the number of viable cells was measured by CellTiter-Glo® Luminescent Cell Viability Assay (Promega), a luminescent method for determining the number of viable cells through measurement of cellular ATP concentration using Envision plate reader (PerkinElmer). The percentage of proliferation was calculated as: % Proliferation = 100 × (G3 value of sample well - G0 value)/(G3 value of DMSO control - G0 value).
Description for Ri-1 cells: as §1

What is called IC50 is the concentration needed to halve the response being measured. A word on the GI50: it is the concentration at which growth is held to half of that of the control. On to `C=CC(=O)Nc1cc(Nc2ncc(C(F)(F)F)c(Nc3cc(Cl)c(F)cc3C(C)(C)O)n2)c(OC)cc1N1CC[C@@H](N(C)C)C1` [Compound 84, (R)-N-(5-(4-(5-chloro-4-fluoro-2-(2-hydroxypropan-2-yl)phenylamino)-5-(trifluoromethyl)pyrimidin-2-ylamino)-2-(3-(dimethylamino)pyrrolidin-1-yl)-4-methoxyphenyl)acrylamide], for which the IC50 was found to be 0.0004 µM on EGFR L858R&T790M; 0.259 µM in [1]; 0.116 µM in assay [2]; 1.56 µM in [4]; 0.605 µM against WT EGFR. Further, the 50% growth inhibitory concentration (GI50) in assay [3] (setting [6]) was 19.1 nM; with Ba/F3 EGFR ASV ins cells (setting [7]), 450 nM; in the assay with OCI-LY-10 cells it was 0.0312 µM; with TMD-8 cells it was 0.0398 µM; in assay [5] it was 0.341 µM; in the assay on DB cells, greater than 3 µM. The GI50 with Ri-1 cells stood at 0.137 µM; in the assay with Ba/F3 EGFR NPH ins cells (setting [8]), 191 nM; in the assay with WT EGFR cell line A-431 (setting [9]) it was 232 nM.
Consider `C=CC(=O)Nc1cc(Nc2ncc(C#N)c(Nc3cc(Cl)c(F)cc3C(C)(C)O)n2)c(OC)cc1N1CC[C@@H](N(C)C)C1` [Compound 85, (R)-N (5-(4-(5-chloro-4-fluoro-2-(2-hydroxypropan-2-yl)phenylamino)-5-cyanopyrimidin-2-ylamino)-2-(3-(dimethylamino)pyrrolidin-1-yl)-4-methoxyphenyl)acrylamide], for which the IC50 at EGFR L858R&T790M is 0.0005 µM; in assay [1], 0.0355 µM; in [2] it was 0.0321 µM; in [4], 0.0716 µM; at WT EGFR it was 0.0685 µM. Further, the GI50 in assay [3] (setting [6]) is 22.4 nM; in the assay on Ba/F3 EGFR ASV ins cells (setting [7]) it was 80.7 nM; with OCI-LY-10 cells, 0.0011 µM; in the assay on TMD-8 cells, 0.0026 µM; in [5] it was 0.129 µM; in the assay with DB cells it was greater than 3 µM. Also, the GI50 in the assay with Ri-1 cells amounted to 0.011 µM; in the assay with Ba/F3 EGFR NPH ins cells (setting [8]), 63.1 nM; with WT EGFR cell line A-431 (setting [9]), 51.1 nM.
On to `C=CC(=O)Nc1cc(Nc2nccc(Nc3cc(Cl)c(F)cc3C(C)(C)O)n2)c(OC)cc1N1CC[C@H](N(C)C)C1` [Compound 87, (S)-N-(5-(4-(5-chloro-4-fluoro-2-(2-hydroxypropan-2-yl)phenylamino)pyrimidin-2-ylamino)-2-(3-(dimethylamino)pyrrolidin-1-yl)-4-methoxyphenyl)a crylamide], for which the IC50 on EGFR L858R&T790M was determined as 0.001 µM; in [1], 0.0512 µM; in assay [2] it was 0.0519 µM; in assay [4] it was 0.0212 µM; at WT EGFR, 0.362 µM. Besides, the GI50 in [3] (setting [6]) is 24.4 nM; with Ba/F3 EGFR ASV ins cells (setting [7]), 156 nM; with OCI-LY-10 cells, 0.0223 µM; with TMD-8 cells, 0.0137 µM; in [5] it was 0.827 µM; in the assay on DB cells it was 1.21 µM. Moreover, the GI50 with Ri-1 cells was determined as 0.048 µM; in the assay with Ba/F3 EGFR NPH ins cells (setting [8]) it was 140 nM; with WT EGFR cell line A-431 (setting [9]) it was 84.8 nM.
Take `C=CC(=O)Nc1cc(Nc2nccc(Nc3cc(Cl)c(F)cc3C(C)(C)O)n2)c(OC)cc1N1C[C@H](F)C[C@@H]1CN(C)C` [Compound 88, N-(5-(4-(5-chloro-4-fluoro-2-(2-hydroxypropan-2-yl)phenylamino)pyrimidin-2-ylamino)-2-((2R,4R)-2-((dimethylamino)methyl)-4-fluoropyrrolidin-1-yl)-4-methoxyphenyl) acrylamide formic acid salt]: the IC50 is 0.0005 µM at EGFR L858R&T790M; 0.0101 µM in assay [1]; 0.0075 µM in assay [2]; 0.0045 µM in assay [4]; 0.0278 µM against WT EGFR. Moreover, the GI50 in assay [3] (read-out: EGFR L858R and T790M mutation GI50 (nM)) is 1.8 nM; with Ba/F3 EGFR ASV ins cells (read-out: EGFR Exon20 ASV insertion GI50 (nM)), 14 nM; with OCI-LY-10 cells, 0.00157 µM; in the assay with TMD-8 cells it was 0.00649 µM; in assay [5] it was 0.0312 µM; with DB cells it was greater than 3 µM. For the same compound, the results for the GI50 in the assay with Ri-1 cells, in the assay on Ba/F3 EGFR NPH ins cells (read-out: EGFR Exon20 NPH insertion GI50 (nM)) and with WT EGFR cell line A-431 (read-out: EGFR WT A431 GI50 (nM)) were 0.012 µM, 18.8 nM and 6.9 nM, respectively.
